Data reported in PMC3944532, “Mode of Action of Diterpene and Characterization of Related Metabolites from the Soft Coral, Xenia elongata” (Marine Drugs, 2014).
Like-named read-outs stand apart in the source and are kept apart here.

What was measured:
W2 cells = test: Apoptosis induction assay (MTT viability), apoptosis competent W2 cells; assay type: cell-based, mouse; conditions: for optimal concentration for apoptosis induction: MTT, 0 to 48 h, apoptosis induction = at least 20% death of W2 cells and 10% or higher growth of D3 cells; for cell death in W2 cells: apoptosis competent W2
Procedure: In order to assess the pro-apoptotic activities of these compounds as a marker for their potential anticancer efficacy, methanol soluble fractions of Xenia extracts were tested for apoptosis induction in an MTT assay using the apoptosis competent W2 and apoptosis resistant D3 cells, as described in our previous work. […] To quantify apoptosis induction, viability was determined using an MTT assay. Measurements were taken at time 0 and 48 h after addition of compounds in different concentrations. Viability was calculated as the difference between time 0 (addition of compound) and 48 h. Apoptosis induction was defined as at least 20% death of W2 cells and a 10% or higher growth of D3 cells by MTT assay. The optimal concentration of the compounds for apoptosis induction was determined based on the dose response of the two cells lines by MTT assay. […] Treatment of W2 and D3 cells with 0.1 µM staurosporine, a protein kinase inhibitor and potent inducer of apoptosis, was included as a positive control for apoptosis induction and for comparison. Thus, the diterpenes we have isolated and characterized effectively and specifically activate apoptosis in immortalized mammalian epithelial cells.
Apoptosis induction in the presence of compounds (2, 3) was carried out in the following manner. W2 (apoptosis competent) and D3 (apoptosis defective) cells were plated in 96- and 6-well plates and incubated for 24 h, after which they were evenly spread at about 50% confluency. At this time, compounds dissolved in DMSO and diluted in growth medium (DMEM) were added to the cells at various concentrations. DMSO concentration was kept at 0.5% in all wells. Plates were incubated for 24, 48 and 72 h. Cell viability was determined using a modification of the MTT assay, where the reduction of yellow tertazolium salt (MTT—[…]) to purple formazan indicates mitochondrial activity, and thus cell viability. Cells were incubated with 0.5 mg/mL MTT for 3 h. Supernatant was aspirated and DMSO was added to dissolve the formazan crystals. After 30 min incubation at 37 °C, with shaking, absorbance was read at 570 nm on a Spectra MAX 250 (Molecular Devices) plate reader. Differential growth from time 0 to 48 h was calculated. Starurosporine, an apoptosis inducer, and DMSO were used as positive and negative controls, respectively.

D3 cells = test: Apoptosis induction assay (MTT viability), apoptosis resistant D3 cells deficient in Bak and Bax; assay type: cell-based, mouse
Procedure: In order to assess the pro-apoptotic activities of these compounds as a marker for their potential anticancer efficacy, methanol soluble fractions of Xenia extracts were tested for apoptosis induction in an MTT assay using the apoptosis competent W2 and apoptosis resistant D3 cells, as described in our previous work. […] To quantify apoptosis induction, viability was determined using an MTT assay. Measurements were taken at time 0 and 48 h after addition of compounds in different concentrations. Viability was calculated as the difference between time 0 (addition of compound) and 48 h. Apoptosis induction was defined as at least 20% death of W2 cells and a 10% or higher growth of D3 cells by MTT assay. The optimal concentration of the compounds for apoptosis induction was determined based on the dose response of the two cells lines by MTT assay. […]
Apoptosis induction in the presence of compounds (2, 3) was carried out in the following manner. […] Cell viability was determined using a modification of the MTT assay, where the reduction of yellow tertazolium salt (MTT—[…]) to purple formazan indicates mitochondrial activity, and thus cell viability. […] After 30 min incubation at 37 °C, with shaking, absorbance was read at 570 nm on a Spectra MAX 250 (Molecular Devices) plate reader. Differential growth from time 0 to 48 h was calculated. […]

P-388 = P-388 cells; cited from earlier work
HT-29 = HT-29 cells; cited from earlier work
A549 = A549 cells; cited from earlier work
HDAC7 = biological target: T1, HDAC7 (Homo sapiens, UniProt Q8WUI4); test: HDAC inhibition assay, class II A, fluorogenic HDAC Class2a substrate; conditions: up to 100 µM
T1 sequence (Q8WUI4 1-952): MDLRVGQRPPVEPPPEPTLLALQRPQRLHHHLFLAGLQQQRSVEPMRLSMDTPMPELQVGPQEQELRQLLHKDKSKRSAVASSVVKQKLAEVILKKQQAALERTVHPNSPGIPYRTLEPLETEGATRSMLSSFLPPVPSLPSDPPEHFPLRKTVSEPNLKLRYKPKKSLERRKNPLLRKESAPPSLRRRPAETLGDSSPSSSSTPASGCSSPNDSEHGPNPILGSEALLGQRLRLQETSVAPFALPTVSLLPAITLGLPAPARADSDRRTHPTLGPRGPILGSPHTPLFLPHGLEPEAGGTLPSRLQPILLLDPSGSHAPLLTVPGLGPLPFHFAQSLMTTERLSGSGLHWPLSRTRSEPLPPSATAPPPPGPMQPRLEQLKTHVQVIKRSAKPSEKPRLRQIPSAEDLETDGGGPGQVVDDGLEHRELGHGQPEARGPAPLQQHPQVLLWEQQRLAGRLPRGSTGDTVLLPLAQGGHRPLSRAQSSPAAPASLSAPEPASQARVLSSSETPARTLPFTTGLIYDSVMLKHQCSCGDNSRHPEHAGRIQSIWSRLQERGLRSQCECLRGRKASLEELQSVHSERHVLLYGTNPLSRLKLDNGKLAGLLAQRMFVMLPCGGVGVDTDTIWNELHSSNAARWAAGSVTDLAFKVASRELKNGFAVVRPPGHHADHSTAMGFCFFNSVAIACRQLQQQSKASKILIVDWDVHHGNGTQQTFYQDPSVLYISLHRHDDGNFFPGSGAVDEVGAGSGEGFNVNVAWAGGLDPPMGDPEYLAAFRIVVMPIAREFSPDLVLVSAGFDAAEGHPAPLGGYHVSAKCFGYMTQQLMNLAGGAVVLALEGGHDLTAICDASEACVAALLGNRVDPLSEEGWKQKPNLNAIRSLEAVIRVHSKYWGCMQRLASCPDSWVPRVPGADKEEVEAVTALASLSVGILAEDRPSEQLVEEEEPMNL

HDAC4 = HDAC4 (Homo sapiens, UniProt P56524); test: as above; conditions: up to 100 µM
Sequence of HDAC4 (P56524 whole entry): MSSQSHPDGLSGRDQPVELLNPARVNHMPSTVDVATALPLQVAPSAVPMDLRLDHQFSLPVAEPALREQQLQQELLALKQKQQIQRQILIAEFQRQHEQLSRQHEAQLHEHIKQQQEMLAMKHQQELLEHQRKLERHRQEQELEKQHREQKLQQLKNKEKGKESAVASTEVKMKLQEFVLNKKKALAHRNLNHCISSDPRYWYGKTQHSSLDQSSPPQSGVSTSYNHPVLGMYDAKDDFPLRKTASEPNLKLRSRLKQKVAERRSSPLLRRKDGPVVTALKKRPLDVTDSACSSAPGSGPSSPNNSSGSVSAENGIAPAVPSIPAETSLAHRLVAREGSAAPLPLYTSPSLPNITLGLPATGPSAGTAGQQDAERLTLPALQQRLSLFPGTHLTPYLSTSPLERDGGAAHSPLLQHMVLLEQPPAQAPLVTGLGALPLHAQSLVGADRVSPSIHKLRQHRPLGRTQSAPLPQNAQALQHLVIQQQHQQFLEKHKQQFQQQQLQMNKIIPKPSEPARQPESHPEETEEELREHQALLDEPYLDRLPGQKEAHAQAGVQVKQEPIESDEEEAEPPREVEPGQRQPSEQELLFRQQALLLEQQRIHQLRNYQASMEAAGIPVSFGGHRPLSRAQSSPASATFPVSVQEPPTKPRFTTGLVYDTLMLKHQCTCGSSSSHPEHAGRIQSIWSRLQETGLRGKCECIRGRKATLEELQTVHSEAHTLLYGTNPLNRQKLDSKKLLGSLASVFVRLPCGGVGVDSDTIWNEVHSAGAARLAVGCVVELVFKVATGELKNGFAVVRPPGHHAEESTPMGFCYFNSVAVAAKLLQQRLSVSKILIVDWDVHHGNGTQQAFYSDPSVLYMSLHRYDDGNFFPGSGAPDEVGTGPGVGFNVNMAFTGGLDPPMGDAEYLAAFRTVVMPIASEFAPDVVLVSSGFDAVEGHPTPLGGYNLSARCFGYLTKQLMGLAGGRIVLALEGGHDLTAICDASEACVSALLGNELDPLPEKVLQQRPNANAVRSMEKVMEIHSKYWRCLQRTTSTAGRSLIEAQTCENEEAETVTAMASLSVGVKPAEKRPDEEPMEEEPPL

HDAC3 = HDAC3 (Homo sapiens, UniProt O15379); test: HDAC inhibition assay, class I, fluorogenic peptide RHKK(Ac)AMC; assay type: biochemical; conditions: up to 50 µM
Sequence of HDAC3 (O15379 whole entry): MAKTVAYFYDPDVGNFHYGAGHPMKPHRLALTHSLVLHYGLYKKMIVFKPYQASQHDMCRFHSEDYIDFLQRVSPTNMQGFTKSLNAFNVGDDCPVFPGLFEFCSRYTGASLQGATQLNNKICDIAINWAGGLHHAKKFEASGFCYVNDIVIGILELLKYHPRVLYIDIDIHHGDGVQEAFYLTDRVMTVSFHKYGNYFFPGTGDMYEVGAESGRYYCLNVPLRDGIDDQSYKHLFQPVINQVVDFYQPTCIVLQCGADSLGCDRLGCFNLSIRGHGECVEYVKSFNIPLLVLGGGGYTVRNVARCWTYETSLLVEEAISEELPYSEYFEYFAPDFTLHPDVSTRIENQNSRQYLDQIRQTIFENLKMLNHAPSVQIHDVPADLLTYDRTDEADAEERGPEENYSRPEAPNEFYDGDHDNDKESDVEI
Sequence of HDAC3 (Q9Y618 395-489 partner limits assumed): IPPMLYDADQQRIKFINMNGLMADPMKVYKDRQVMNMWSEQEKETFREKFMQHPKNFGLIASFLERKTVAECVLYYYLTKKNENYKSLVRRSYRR

HDAC8 = biological target: T2, HDAC8 (Homo sapiens, UniProt Q9BY41); test: HDAC inhibition assay, class I, fluorogenic peptide RHK(Ac)K(Ac)AMC; assay type: biochemical; conditions: up to 50 µM
T2 sequence (Q9BY41 1-377): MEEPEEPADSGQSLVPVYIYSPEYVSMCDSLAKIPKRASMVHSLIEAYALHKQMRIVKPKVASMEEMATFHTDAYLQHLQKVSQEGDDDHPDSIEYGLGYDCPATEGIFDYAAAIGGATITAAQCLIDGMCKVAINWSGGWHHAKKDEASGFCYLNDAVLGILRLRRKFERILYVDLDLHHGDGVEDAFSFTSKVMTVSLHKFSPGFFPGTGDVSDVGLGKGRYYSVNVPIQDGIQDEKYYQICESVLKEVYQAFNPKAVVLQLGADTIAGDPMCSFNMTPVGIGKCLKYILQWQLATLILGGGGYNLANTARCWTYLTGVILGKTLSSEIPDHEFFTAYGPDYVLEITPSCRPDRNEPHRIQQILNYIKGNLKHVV

HDAC9 = HDAC9 (Homo sapiens, UniProt Q9UKV0); test: HDAC inhibition assay, class II A, fluorogenic HDAC Class2a substrate; conditions: up to 100 µM
Sequence of HDAC9 (Q9UKV0 whole entry): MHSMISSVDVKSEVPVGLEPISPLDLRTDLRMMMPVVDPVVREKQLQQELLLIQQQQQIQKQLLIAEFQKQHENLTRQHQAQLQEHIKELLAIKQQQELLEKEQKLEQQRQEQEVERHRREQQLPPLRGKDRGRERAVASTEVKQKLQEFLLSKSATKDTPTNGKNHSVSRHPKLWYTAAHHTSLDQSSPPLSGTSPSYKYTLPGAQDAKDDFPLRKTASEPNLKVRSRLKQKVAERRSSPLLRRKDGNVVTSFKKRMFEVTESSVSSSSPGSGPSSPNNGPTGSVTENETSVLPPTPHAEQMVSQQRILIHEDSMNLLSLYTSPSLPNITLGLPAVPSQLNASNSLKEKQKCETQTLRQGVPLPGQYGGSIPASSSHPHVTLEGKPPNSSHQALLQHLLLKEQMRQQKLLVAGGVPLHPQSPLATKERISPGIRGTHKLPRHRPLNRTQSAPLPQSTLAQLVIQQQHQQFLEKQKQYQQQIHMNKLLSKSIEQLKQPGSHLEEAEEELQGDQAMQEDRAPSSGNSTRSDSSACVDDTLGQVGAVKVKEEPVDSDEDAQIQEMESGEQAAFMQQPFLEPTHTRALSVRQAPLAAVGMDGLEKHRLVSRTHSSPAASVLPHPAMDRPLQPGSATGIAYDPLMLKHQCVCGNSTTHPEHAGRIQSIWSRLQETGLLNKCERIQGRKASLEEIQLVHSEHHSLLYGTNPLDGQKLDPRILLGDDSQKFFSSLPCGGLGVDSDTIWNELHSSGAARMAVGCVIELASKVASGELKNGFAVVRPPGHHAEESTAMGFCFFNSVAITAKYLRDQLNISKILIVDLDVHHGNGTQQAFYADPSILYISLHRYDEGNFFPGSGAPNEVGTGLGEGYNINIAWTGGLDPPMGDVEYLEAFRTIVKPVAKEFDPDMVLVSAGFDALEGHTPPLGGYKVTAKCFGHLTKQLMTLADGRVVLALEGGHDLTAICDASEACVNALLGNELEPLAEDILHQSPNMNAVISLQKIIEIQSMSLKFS

HDAC6 = biological target: T3, HDAC6 (Homo sapiens, UniProt Q9UBN7); test: HDAC inhibition assay, class II B, fluorogenic peptide RHKK(Ac)AMC; assay type: biochemical
T3 sequence (Q9UBN7 1-1215): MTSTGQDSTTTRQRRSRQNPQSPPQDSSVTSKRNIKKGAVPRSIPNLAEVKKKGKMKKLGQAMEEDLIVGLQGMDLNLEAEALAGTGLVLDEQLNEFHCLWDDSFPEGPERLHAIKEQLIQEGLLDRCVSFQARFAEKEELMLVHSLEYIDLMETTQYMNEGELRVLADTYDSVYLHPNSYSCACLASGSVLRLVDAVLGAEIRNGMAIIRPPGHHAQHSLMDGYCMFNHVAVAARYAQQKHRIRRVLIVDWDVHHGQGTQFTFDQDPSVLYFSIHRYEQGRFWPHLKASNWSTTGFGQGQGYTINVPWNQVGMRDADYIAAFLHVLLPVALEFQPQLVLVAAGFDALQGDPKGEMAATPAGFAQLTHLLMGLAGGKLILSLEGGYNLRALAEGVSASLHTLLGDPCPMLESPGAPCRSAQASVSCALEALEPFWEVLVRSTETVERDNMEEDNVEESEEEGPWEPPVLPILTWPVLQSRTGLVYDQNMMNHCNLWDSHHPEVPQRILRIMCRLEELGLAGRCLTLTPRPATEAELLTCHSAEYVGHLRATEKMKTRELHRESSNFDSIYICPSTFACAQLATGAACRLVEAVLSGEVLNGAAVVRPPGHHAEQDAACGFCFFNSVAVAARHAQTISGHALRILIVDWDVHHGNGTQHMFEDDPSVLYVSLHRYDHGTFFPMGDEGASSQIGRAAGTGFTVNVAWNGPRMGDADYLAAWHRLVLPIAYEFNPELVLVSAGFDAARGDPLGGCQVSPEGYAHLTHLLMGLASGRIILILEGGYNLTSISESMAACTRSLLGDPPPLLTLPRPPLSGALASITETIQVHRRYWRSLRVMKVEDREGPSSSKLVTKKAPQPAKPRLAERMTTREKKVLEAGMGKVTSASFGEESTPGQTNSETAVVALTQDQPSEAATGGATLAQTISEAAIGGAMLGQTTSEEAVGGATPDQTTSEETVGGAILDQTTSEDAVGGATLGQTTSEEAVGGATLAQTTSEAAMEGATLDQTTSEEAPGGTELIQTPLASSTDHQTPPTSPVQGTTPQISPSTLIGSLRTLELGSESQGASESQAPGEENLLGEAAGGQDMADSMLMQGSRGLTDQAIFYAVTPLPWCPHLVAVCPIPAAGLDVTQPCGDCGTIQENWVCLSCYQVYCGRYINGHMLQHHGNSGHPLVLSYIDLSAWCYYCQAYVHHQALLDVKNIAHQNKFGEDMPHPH

HDAC5 = HDAC5 (Homo sapiens, UniProt Q9UQL6); test: HDAC inhibition assay, class II A, fluorogenic HDAC Class2a substrate; conditions: up to 100 µM
Sequence of HDAC5 (Q9UQL6 whole entry): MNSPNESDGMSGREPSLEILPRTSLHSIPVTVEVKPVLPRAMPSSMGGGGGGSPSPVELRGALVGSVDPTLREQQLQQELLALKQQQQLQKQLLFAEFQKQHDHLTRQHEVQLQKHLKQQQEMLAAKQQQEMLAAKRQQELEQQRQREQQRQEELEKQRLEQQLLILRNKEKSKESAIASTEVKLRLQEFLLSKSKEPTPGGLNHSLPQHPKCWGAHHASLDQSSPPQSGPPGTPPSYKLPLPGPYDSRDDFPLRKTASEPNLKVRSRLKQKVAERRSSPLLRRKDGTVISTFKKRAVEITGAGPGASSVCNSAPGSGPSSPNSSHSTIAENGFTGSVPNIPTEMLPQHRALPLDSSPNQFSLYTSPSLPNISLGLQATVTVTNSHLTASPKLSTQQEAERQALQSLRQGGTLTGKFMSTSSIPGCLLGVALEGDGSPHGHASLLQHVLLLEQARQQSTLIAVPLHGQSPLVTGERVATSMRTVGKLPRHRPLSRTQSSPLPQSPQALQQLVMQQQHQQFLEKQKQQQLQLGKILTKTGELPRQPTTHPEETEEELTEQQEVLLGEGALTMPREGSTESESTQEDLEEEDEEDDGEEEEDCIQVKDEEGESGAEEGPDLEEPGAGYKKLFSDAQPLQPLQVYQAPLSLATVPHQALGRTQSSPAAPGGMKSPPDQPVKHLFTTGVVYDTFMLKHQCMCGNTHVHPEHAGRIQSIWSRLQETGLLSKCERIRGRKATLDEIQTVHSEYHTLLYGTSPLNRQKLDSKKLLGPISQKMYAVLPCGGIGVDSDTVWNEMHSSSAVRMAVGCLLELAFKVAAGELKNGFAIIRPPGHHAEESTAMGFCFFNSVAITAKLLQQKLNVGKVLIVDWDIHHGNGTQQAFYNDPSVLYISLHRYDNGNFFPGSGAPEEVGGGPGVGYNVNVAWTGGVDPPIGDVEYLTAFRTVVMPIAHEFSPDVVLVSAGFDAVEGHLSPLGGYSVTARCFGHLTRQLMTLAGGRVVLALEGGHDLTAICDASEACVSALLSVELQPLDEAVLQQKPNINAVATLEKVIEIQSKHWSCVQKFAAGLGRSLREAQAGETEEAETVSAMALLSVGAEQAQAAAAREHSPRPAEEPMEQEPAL

HDAC2 = HDAC2 (Homo sapiens, UniProt Q92769); test: HDAC inhibition assay, class I, fluorogenic peptide RHKK(Ac)AMC; assay type: biochemical; conditions: up to 50 µM
Sequence of HDAC2 (Q92769 whole entry): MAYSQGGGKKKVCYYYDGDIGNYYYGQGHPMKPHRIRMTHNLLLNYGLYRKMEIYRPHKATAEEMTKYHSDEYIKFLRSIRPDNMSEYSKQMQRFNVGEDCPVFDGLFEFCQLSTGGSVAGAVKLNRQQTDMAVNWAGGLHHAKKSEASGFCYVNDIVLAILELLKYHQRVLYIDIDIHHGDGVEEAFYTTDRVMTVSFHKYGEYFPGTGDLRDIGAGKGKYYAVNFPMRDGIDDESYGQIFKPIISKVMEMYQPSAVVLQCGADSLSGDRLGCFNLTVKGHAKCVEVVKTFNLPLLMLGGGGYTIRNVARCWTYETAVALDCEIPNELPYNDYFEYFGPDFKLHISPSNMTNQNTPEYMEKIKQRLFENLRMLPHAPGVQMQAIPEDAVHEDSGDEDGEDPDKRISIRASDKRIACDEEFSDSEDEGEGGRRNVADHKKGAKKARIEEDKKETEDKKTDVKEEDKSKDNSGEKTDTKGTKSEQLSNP

HDAC1 = HDAC1 (Homo sapiens, UniProt Q13547); test: as above; assay type: biochemical; conditions: up to 50 µM
Sequence of HDAC1 (Q13547 whole entry): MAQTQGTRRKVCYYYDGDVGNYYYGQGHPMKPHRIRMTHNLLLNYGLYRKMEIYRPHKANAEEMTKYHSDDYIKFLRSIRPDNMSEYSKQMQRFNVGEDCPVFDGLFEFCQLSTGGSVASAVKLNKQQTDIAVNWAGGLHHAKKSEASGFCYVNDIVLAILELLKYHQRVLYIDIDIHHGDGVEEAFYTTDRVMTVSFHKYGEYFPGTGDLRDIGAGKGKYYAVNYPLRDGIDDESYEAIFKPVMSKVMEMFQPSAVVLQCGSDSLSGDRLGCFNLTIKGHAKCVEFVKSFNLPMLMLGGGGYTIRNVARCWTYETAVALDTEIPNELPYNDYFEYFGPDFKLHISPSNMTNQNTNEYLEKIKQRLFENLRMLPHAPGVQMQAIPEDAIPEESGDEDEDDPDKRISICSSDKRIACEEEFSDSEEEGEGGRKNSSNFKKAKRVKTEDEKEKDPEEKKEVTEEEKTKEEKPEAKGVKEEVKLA

| Structure (SMILES) | optimal concentration for apoptosis induction (W2 cells) | cell death in W2 cells (W2 cells) | cell death in D3 cells (D3 cells) | cytotoxicity (P-388) | cytotoxicity (HT-29) | cytotoxicity (A549) | inhibition of HDAC7 (HDAC7) | inhibition of HDAC4 (HDAC4) | inhibition of HDAC3 (HDAC3) | inhibition of HDAC8 (HDAC8) | inhibition of HDAC9 (HDAC9) | inhibition of HDAC6 (HDAC6) | IC50 (HDAC6; 10-dose, 3-fold serial dilution, Compound 3 in duplicate starting at 120 µM, read-out: IC50) | IC50 (HDAC6; as stated in text and legend of Figure 6, read-out: IC50) | HILLSLOPE (HDAC6; curve fit) | IC50 (HDAC6; curve fit printed in the picture of Figure 6, read-out: HDAC 6: EC50) | inhibition of HDAC5 (HDAC5) | inhibition of HDAC2 (HDAC2) | inhibition of HDAC1 (HDAC1) |
| --- | --- | --- | --- | --- | --- | --- | --- | --- | --- | --- | --- | --- | --- | --- | --- | --- | --- | --- | --- |
| C=C1CC/C=C(\C)CC[C@@H]2C(C(CC3OC3(C)C)OC(C)=O)=CO[C@H](OC)[C@@H]12 (relative stereo) [Compound 2] | 11.5 µM | induce measurable cell death in W2 | not in D3 cells | – | – | – | – | – | – | – | – | – | – | – | – | – | – | – | – |
| C=C1CC[C@@H]2O[C@@]2(C)CC[C@H](/C(=C\CC2OC2(C)C)COC(C)=O)[C@H]1C(=O)OC (stereo partly shown) [xenitacin] | – | – | – | most active compound in its group | most active compound in its group | most active compound in its group | – | – | – | – | – | – | – | – | – | – | – | – | – |
| C=C1CC[C@@H]2O[C@@]2(C)CC[C@H](/C(=C/CC2OC2(C)C)CO)[C@H]1C(=O)OC (relative stereo) [Compound 3] | 1.2 µM | induce measurable cell death in W2 | not in D3 cells | – | – | – | did not significantly inhibit | did not significantly inhibit | did not significantly inhibit | did not significantly inhibit | did not significantly inhibit | inhibits selectively HDAC6 in high micromolar concentrations | 80.9 µM | ~80 µM | −1.19 | 80.9 µM | did not significantly inhibit | did not significantly inhibit | did not significantly inhibit |
